Article PMC4541002, “Quantification of Niacin and Its Metabolite Nicotinuric Acid in Human Plasma by LC-MS/MS: Application to a Clinical Trial of a Fixed Dose Combination Tablet of Niacin Extended-Release/Simvastatin (500 mg/10 mg) in Healthy Chinese Volunteers” (International Journal of Analytical Chemistry, 2015)
Read-outs that look alike come from different tables or passages of the source.

Tests used:
[1] = Stability of stock solutions of NA and NUA; assay type: physicochemical
Description: Two separate stock solutions of the analytes were prepared at 1 mg/mL in methanol-water (50 : 50, v/v) and stored at −20°C. A series of standard working solutions for NA and NUA were prepared by diluting stock solution with methanol-water (50 : 50, v/v). The 5-FU solution was brought to a final concentration of 1000 ng/mL in acetonitrile from 1 mg/mL in acetonitrile. All working solutions were stored at 4°C and brought to room temperature before use. Calibration standards and quality control samples were prepared by spiking 50 μL of the working solutions and 50 μL of IS into 100 μL of drug-free human plasma. Matrix-matched NA and NUA calibration standards were prepared in plasma at concentrations of 5, 10, 20, 60, 200, 600, and 800 ng/mL, respectively. Similarly, NA and NUA quality control (QC) samples were prepared separately in plasma to give concentrations of 10, 60, and 600 ng/mL.

[2] = for Found C / Found R.E.: n = 3
Description: The following stability tests were evaluated: (1) stability of the stock solutions of the analytes; (2) freeze and thaw stability of the analytes in the plasma from −20°C to room temperature for three cycles; (3) short-term stability of the analytes in plasma at room temperature before extraction for 3 h and the ready-to-inject samples (after extraction, in the mobile phase) to the autosampler rack for 4 h; and (4) long-term stability of the analytes in matrix stored at −20°C for two months. All stability tests samples at three concentration levels (10, 60, and 600 ng/mL) were analyzed in triplicate and the deviations were determined in relation to freshly prepared samples.

[3] = Pharmacokinetics of NA and NUA in plasma after single oral doses of Niacin extended-release/Simvastatin tablets in healthy Chinese volunteers; assay type: in vivo; details: for CLz/F: human plasma; for AUC(0-t) / AUC(0-inf) / Tmax / half-life / Cmax / k el / MRT last / Vd/F: both sexes, human, in vivo, po; for k el: n = 12, read-out: K e (converted); for MRT last: n = 12, read-out: MRT0–t; for Vd/F: n = 12, read-out: V z/F
Description: Extraction of NA and NUA was carried out by protein precipitation. First, 50 μL of the IS working solution (1000 ng/mL 5-FU) and 50 μL of water were added to a 100 μL aliquot of human plasma. The sample mixture was then deproteinized with 250 μL of acetonitrile, and the precipitate was removed by centrifugation at 15000 rpm for 10 min. The supernatant was transferred to another tube and evaporated under a gentle stream of nitrogen at 40°C until it is dry. The residue was reconstituted in 150 μL mobile phase and vortex-mixed for 30 sec. An aliquot of 40 μL of the solution was injected into the LC-MS/MS system for analysis.
Before conducting the study all subjects provided written informed consent to participate. The study was designed as randomized, open-label, crossover, and single dose periods with a 7-day washout between each treatment. A total of 12 healthy Chinese volunteers (6 males and 6 females) aged 20 to 35 years with a body mass index between 19 and 24 kg/m^2 were recruited. Subjects were randomized into three groups (2 males and 2 females for each treatment). They were orally dosed with Niacin extended-release/Simvastatin 1, 2, and 3 tablets once daily, separately. The venous blood samples were collected at time intervals (0, 0.33, 0.66, 1.0, 1.5, 2.0, 2.5, 3.0, 3.5, 4.0, 5.0, 6.0, 8.0, 12, and 24 h) in separate vacutainers during the treatment. All blood samples were centrifuged at 3000 ×g for 10 min and the plasma was separated and kept frozen at −20°C until analysis.
The pharmacokinetic parameters were calculated with data analysis system (DAS) program (version 2.0, Mathematical Pharmacology Professional Committee, Shanghai, China). The maximum plasma concentration (C max) and the corresponding time (T max) were obtained from observed data. The terminal elimination rate constant (K e) was estimated with least-squares regression of values in the terminal log-linear region of plasma concentration-time curves, and the terminal elimination half-life (t 1/2) was calculated to be 0.693/K e. The area under the curve from time zero to the last sampling time (AUC0−t) was determined using the linear trapezoidal rule.

[4] = extracted plasma sample in mobile phase, autosampler for 4 h (24°C), added 10.0 ng/mL
[5] = extracted plasma sample in mobile phase, autosampler for 4 h (24°C), added 60.0 ng/mL
[6] = extracted plasma sample in mobile phase, autosampler for 4 h (24°C), added 600.0 ng/mL
[7] = human plasma, long-term (2 months at −20°C), added 10.0 ng/mL
[8] = human plasma, long-term (2 months at −20°C), added 60.0 ng/mL
[9] = human plasma, long-term (2 months at −20°C), added 600.0 ng/mL
[10] = human plasma, short-term (3 h at 24°C), added 10.0 ng/mL
[11] = human plasma, short-term (3 h at 24°C), added 60.0 ng/mL
[12] = human plasma, short-term (3 h at 24°C), added 600.0 ng/mL
[13] = human plasma, three freeze/thaw cycles, added 10.0 ng/mL
[14] = human plasma, three freeze/thaw cycles, added 60.0 ng/mL
[15] = human plasma, three freeze/thaw cycles, added 600.0 ng/mL
[16] = 1 tablet (500 mg/10 mg), mean ± S.D., n = 12
[17] = 2 tablets (1000 mg/20 mg), mean ± S.D., n = 12
[18] = 3 tablets (1500 mg/30 mg), mean ± S.D., n = 12
[19] = 1 tablet (500 mg/10 mg), mean ± S.D.
[20] = 2 tablets (1000 mg/20 mg), mean ± S.D.
[21] = 3 tablets (1500 mg/30 mg), mean ± S.D.

O=C(O)CNC(=O)c1cccnc1 [NUA, nicotinuric acid]
R.E.% of response, stock solution stability ([1]; seven days at −20°C versus before): −1.6%
R.E.% of response, stock solution stability ([1]; six h at room temperature versus before): 0.8%
Found C [2, 4]: 10.7 ng/mL
Found R.E. [2, 4]: 7.3%
Found C [2, 5]: 67.0 ng/mL
Found R.E. [2, 5]: 11.7%
Found C [2, 6]: 598.3 ng/mL
Found R.E. [2, 6]: −0.3%
Found C [2, 7]: 10.6 ng/mL
Found R.E. [2, 7]: 6.4%
Found C [2, 8]: 59.1 ng/mL
Found R.E. [2, 8]: −1.5%
Found C [2, 9]: 579.3 ng/mL
Found R.E. [2, 9]: −3.4%
Found C [2, 10]: 11.0 ng/mL
Found R.E. [2, 10]: 9.7%
Found C [2, 11]: 63.6 ng/mL
Found R.E. [2, 11]: 5.9%
Found C [2, 12]: 628.7 ng/mL
Found R.E. [2, 12]: 4.8%
Found C [2, 13]: 10.8 ng/mL
Found R.E. [2, 13]: 8.3%
Found C [2, 14]: 63.3 ng/mL
Found R.E. [2, 14]: 5.6%
Found C [2, 15]: 618.3 ng/mL
Found R.E. [2, 15]: 3.1%
stability in human plasma ([2]; variety of storage and process conditions (Tables 2 and 3)): did not reveal any significant degradation
CLz/F [3, 16]: 287.8 ± 128.2 L/h
CLz/F [3, 17]: 224.8 ± 91.90 L/h
CLz/F [3, 18]: 189.3 ± 94.20 L/h
AUC(0-t) ([3]; 1 tablet): 2150 ± 1360 ng·h/mL
AUC(0-inf) [3, 16]: 2180 ± 1370 ng·h/mL
AUC(0-t) [3, 16]: 2150 ± 1360 ng·h/mL
Tmax [3, 16]: 2.06 ± 1.6 h
half-life [3, 16]: 1.7 ± 0.801 h
Cmax ([3]; 1 tablet (500 mg/10 mg), mean ± S.D., n = 12, read-out: C max): 836 ± 399 ng/mL
k el [3, 19]: 0.000147 s⁻¹
MRT last [3, 19]: 2.91 ± 0.74 h
Vd/F [3, 19]: 649 ± 338 L
Cmax ([3]; 1 tablet, read-out: mean maximum plasma concentration (C max)): 836 ± 399 ng/mL
AUC(0-t) ([3]; 2 tablets): 5400 ± 3220 ng·h/mL
AUC(0-inf) [3, 17]: 5480 ± 3250 ng·h/mL
AUC(0-t) [3, 17]: 5400 ± 3220 ng·h/mL
Tmax [3, 17]: 3.03 ± 2.19 h
half-life [3, 17]: 2.55 ± 1.26 h
Cmax ([3]; 2 tablets (1000 mg/20 mg), mean ± S.D., n = 12, read-out: C max): 1630 ± 636 ng/mL
k el [3, 20]: 9.17e-05 s⁻¹
MRT last [3, 20]: 3.6 ± 1.32 h
Vd/F [3, 20]: 821 ± 523 L
Cmax ([3]; 2 tablets, read-out: C max): 1630 ± 636 ng/mL
AUC(0-t) ([3]; 3 tablets): 10200 ± 7080 ng·h/mL
AUC(0-inf) [3, 18]: 10200 ± 7090 ng·h/mL
AUC(0-t) [3, 18]: 10200 ± 7080 ng·h/mL
Tmax [3, 18]: 2.33 ± 1.05 h
half-life [3, 18]: 2.72 ± 1.83 h
Cmax ([3]; 3 tablets (1500 mg/30 mg), mean ± S.D., n = 12, read-out: C max): 2790 ± 1040 ng/mL
k el [3, 21]: 9.17e-05 s⁻¹
MRT last [3, 21]: 3.79 ± 1.11 h
Vd/F [3, 21]: 696 ± 458 L
Cmax ([3]; 3 tablets, read-out: C max): 2790 ± 1040 ng/mL
